Calls of active or inactive are those of the source. The rule behind the calls is not given here.
Experiments:
[1] = target: T1, Fatty-acid amide hydrolase 1 (Rattus norvegicus) (UniProt P97612); experiment: (§1) Inhibition of Sprague-Dawley rat brain microsome FAAH assessed as reduction in 4-pyren-1-ylbutanoic acid release after 60 mins by reverse phase HPLC-based fluorescence method
T1 sequence (whole entry): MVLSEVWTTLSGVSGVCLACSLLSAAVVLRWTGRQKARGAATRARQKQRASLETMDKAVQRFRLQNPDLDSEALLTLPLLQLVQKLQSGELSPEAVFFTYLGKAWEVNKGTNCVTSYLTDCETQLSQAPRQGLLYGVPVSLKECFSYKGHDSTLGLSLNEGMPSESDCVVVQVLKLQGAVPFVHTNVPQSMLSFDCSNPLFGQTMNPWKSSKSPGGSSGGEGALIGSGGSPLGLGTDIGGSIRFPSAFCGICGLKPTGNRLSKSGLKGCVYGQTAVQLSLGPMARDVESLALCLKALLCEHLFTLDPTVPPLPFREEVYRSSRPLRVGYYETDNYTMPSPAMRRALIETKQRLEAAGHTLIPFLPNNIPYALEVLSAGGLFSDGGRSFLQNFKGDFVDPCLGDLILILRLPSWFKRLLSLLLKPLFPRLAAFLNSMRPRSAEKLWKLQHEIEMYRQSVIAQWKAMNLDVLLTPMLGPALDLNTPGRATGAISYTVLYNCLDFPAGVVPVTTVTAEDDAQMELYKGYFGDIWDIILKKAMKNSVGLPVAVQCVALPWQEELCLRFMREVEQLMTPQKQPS

[2] = target: T1, Fatty-acid amide hydrolase 1 (Rattus norvegicus); experiment: Inhibition of Sprague-Dawley rat brain FAAH assessed as residual activity at 10 uM after 60 mins by reverse phase HPLC-based fluorescence method
[3] = target: T2, Fatty-acid amide hydrolase 1 (Rattus norvegicus, UniProt P97612); experiment: as §1
T2 sequence (P97612 whole entry): T1 sequence (whole entry)

[4] = Inhibition of cPLA2alpha at 1 uM
[5] = target: Acyl-protein thioesterase 1 (Homo sapiens) (UniProt O75608); experiment: Inhibition of APT1 at 50 uM
[6] = target: Acyl-protein thioesterase 2 (Homo sapiens) (UniProt O95372); experiment: Inhibition of APT2 at 50 uM
Chain of Acyl-protein thioesterase 2 (Homo sapiens) (O95372 whole entry): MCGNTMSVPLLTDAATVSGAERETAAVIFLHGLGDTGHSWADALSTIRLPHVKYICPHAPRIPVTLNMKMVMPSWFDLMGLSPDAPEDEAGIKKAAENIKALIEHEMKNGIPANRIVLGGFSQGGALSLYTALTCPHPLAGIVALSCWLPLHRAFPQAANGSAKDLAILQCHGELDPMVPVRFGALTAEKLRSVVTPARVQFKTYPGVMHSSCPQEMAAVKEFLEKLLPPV

Chain of Acyl-protein thioesterase 1 (Homo sapiens) (O75608 whole entry): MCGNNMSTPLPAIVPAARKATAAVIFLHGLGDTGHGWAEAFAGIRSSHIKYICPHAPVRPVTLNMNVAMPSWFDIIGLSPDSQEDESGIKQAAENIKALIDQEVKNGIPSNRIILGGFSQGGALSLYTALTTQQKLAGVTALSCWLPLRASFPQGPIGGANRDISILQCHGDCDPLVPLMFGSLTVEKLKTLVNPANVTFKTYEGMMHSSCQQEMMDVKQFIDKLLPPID

Structure (SMILES) | inhibition [1] | Activity [2] | also measured
CCCCCCCCCCCC(=O)c1ncc(CCCCS(=O)(=O)CCCN(C)C)o1 | inactive | 32% | –
CCCCCCCC(=O)c1ncc(CCCCCCSCCC[N+](C)(C)C)o1 | – | 82% | –
CCCCCCCCCCCC(=O)c1ncc(CCCCCS(=O)(=O)CCCN(C)C)o1 | inactive | 53% | –
CCCCCCCC(=O)c1ncc(CCSCCCN(C)C)o1 | – | 34% | –
Cc1nc(-c2ccccc2)c(-c2ccccc2)n1CCCCCCNC(=O)Oc1ccccc1 | – | – | IC50 [3]: 0.34 µM
CCCCCCCCCCCC(=O)c1ncc(CCSCCCN(C)C)o1 | inactive | 27% | –
CCCCCCCC(=O)c1ncc(CCCS(=O)(=O)CCCN(C)C)o1 | – | 22% | IC50 [3]: 2.4 µM
CCCCCCCC(=O)c1ncc(CCCCCCS(=O)(=O)CCCN(C)C)o1 | – | 62% | –
CCCCCCCC(=O)c1ncc(CCCS(=O)(=O)CCC[N+](C)(C)C)o1 | – | 53% | –
CCCCCCCCCCCC(=O)c1ncc(CCCCSCCCN(C)C)o1 | inactive | 49% | –
CCCCCCCC(=O)c1ncc(CCCCSCCCN(C)C)o1 | – | 48% | –
CCCCCCCC(=O)c1ncc(CCCSCCCN(C)C)o1 | – | 64% | –
CCCCCCCC(=O)c1ncc(CCCCCSCCCN(C)C)o1 | – | 78% | –
CCCCCCCC(=O)c1ncc(CCCCSCCC[N+](C)(C)C)o1 | – | 68% | –
CCCCCCCCCCCC(=O)c1ncc(CCS(=O)(=O)CCCN(C)C)o1 | – | 3% | IC50 [3]: 0.37 µM
CCCCCCCC(=O)c1ncc(CCCCS(=O)(=O)CCC[N+](C)(C)C)o1 | – | 83% | –
CCCCCCCCCCCC(=O)c1ncc(CCSCCC[N+](C)(C)C)o1 | inactive | 78% | –
CCCCCCCCCCCC(=O)c1ncc(CCCCCCS(=O)(=O)CCCN(C)C)o1 | inactive | 51% | –
CCCCCCCCCCCC(=O)c1ncc(CCS(=O)(=O)CCC[N+](C)(C)C)o1 | – | 11% | IC50 [3]: 1.4 µM
O=C(CCCCCc1ccccc1)c1nc2ncccc2o1 | – | – | IC50 [3]: 0.0029 µM
CCCCCCCCCCCC(=O)c1ncc(CCCCCCSCCCN(C)C)o1 | inactive | 72% | –
CCCCCCCCCCCC(=O)c1ncc(CCCCS(=O)(=O)CCC[N+](C)(C)C)o1 | inactive | 49% | –
CCCCCCCCCCCC(=O)c1ncc(CCCCCSCCCN(C)C)o1 | inactive | 64% | –

Continued, in another order:

inhibition [1] | Activity [2] | Structure (SMILES) | also measured
– | 73% | CCCCCCCC(=O)c1ncc(CCCCCS(=O)(=O)CCCN(C)C)o1 | –
– | 13% | CCCCCCCCCCCC(=O)c1ncc(CCCS(=O)(=O)CCC[N+](C)(C)C)o1 | IC50 [3]: 1.9 µM
inactive | 71% | CCCCCCCCCCCC(=O)c1ncc(CCCCCCSCCC[N+](C)(C)C)o1 | –
– | 2% | CCCCCCCCCCCC(=O)c1ncc(CCCS(=O)(=O)CCCN(C)C)o1 | IC50 [3]: 0.29 µM; inhibition [4]: inactive; inhibition [5]: inactive; inhibition [6]: inactive
– | 70% | CCCCCCCC(=O)c1ncc(CCCCCS(=O)(=O)CCC[N+](C)(C)C)o1 | –
– | 78% | CCCCCCCC(=O)c1ncc(CCCCCCSCCCN(C)C)o1 | –
inactive | 78% | CCCCCCCCCCCC(=O)c1ncc(CCCCSCCC[N+](C)(C)C)o1 | –
– | 23% | CCCCCCCC(=O)c1ncc(CCS(=O)(=O)CCCN(C)C)o1 | IC50 [3]: 2 µM
inactive | 57% | CCCCCCCCCCCC(=O)c1ncc(CCCCCS(=O)(=O)CCC[N+](C)(C)C)o1 | –
– | 61% | CCCCCCCC(=O)c1ncc(CCS(=O)(=O)CCC[N+](C)(C)C)o1 | –
– | inactive | CCCCCCCC(=O)c1ncc(CCSCCC[N+](C)(C)C)o1 | –
inactive | 31% | CCCCCCCCCCCC(=O)c1ncc(CCCCCCS(=O)(=O)CCC[N+](C)(C)C)o1 | –
– | 59% | CCCCCCCC(=O)c1ncc(CCCCS(=O)(=O)CCCN(C)C)o1 | –
inactive | 40% | CCCCCCCCCCCC(=O)c1ncc(CCCSCCCN(C)C)o1 | –
